Legend:
HCC44 = assay: Cell viability dose-response, HCC44; format: cell-based, human; settings: Homo sapiens, HCC44, 12-point dose-response starting at 50 micromolar, 3-fold increments, in duplicate; read-out: toxicity data, HCC44
Method in brief: (§1)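 Compound is titrated onto cells seeded at 15% confluence and incubated four days in 5% FBS RPMI-1640 medium. ATP-based luminescence gives viability; duplicate means ±SEM define the dose-response curve.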

H1155 = assay: Cell viability dose-response, H1155; format: cell-based; settings: Homo sapiens, NCI-H1155; 12-point dose-response starting at 50 micromolar, 3-fold increments, in duplicate; read-out: toxicity data, H1155
Method in brief: as §1

H1395 = assay: Cell viability dose-response, H1395; format: cell-based; settings: Homo sapiens, NCI-H1395; 12-point dose-response starting at 50 micromolar, 3-fold increments, in duplicate; read-out: toxicity data, H1395
Method in brief: as §1

HCC366 = assay: Cell viability dose-response, HCC366; format: cell-based; settings: Homo sapiens, 12-point dose-response starting at 50 micromolar, 3-fold increments, in duplicate, read-out: toxicity data, HCC366
Method: FIG. 6A. […] Cell viability is plotted vs. compound concentration. Compound was added to cells plated at 15% confluence in 96-well plates in RPMI-1640 media supplemented with 5% Fetal Bovine Serum and 2 mM L-Glutamine. After 4 days of incubation, ATP levels were measured using Cell Titer Glo (Promega). Data are presented as the average of 2 replicates ±SEM.
Selectivity may be measured by the half maximal inhibitory concentration (IC50), which, as used herein, is a measure of the effectiveness of a compound in killing cells. This quantitative measure indicates how much of a particular compound is needed to kill a particular cell population by half (e.g., as indicated by the amount of ATP). […] The IC50 can be determined by constructing a dose-response curve. The lower the IC50, the higher the potency, and the greater the difference between IC50 values for different cell lines (e.g., sensitive lines vs. insensitive lines, and sensitive lines vs. normal lines) the greater the selectivity. […]
With this information, we synthesized and tested a series of small molecules derived in conception from the oxalamide and chromone scaffold including N-acyl ureas, as shown in Tables 6-8. Each compound was tested in a 12-point dose-response study starting at 50 micromolar and decreasing in 3-fold increments to sub-nanomolar concentrations, in duplicate. Additionally, one or more additional cell line was tested in the same way.

HCC4017 [1] = assay: Metabolism by insensitive cells (HPLC/MS/MS); format: in vitro ADME, human
Method: (§2) FIGS. 9A-9D. Selective toxins selectively cross-link to SCD1 in sensitive cells and are selectively metabolized in sensitive cells. FIG. 9A. 12 NSCLC cell lines were incubated with SW208108 and processed as described in FIG. 7. […] FIG. 9B. […] FIG. 9C. […] Demethylation is the anticipated mode of metabolism. FIG. 9D. A representative benzothiazole is demethylated by sensitive cell lines. […] Values in FIGS. 9C and 9D were obtained by tandem HPLC/MS/MS.
(§3) In this context, 12 different NSCLC cell lines were treated with SW208108, lysed and clicked to a dye as previously described. […] To understand how SW208108 could selectively cross-link to SCD1 within some cell lines that expressed the enzyme but not other cell lines that expressed the same enzyme, we investigated the stability of a representative oxalamide in the presence of a sensitive and insensitive cell line. […] Similarly, a representative benzothiazole was metabolized by H2122 cells through, at least in part, the loss of the O-methyl group (FIG. 9D).

HCC4017 [2] = assay: Cell viability dose-response, HCC4017; format: cell-based, human; settings: Homo sapiens, HCC4017, 12-point dose-response starting at 50 micromolar, 3-fold increments, in duplicate; read-out: toxicity data, HCC4017
Method in brief: as §1

H2122 = assay: Cell viability dose-response, H2122; format: cell-based, human; settings: Homo sapiens, NCI-H2122, 12-point dose-response starting at 50 micromolar, 3-fold increments, in duplicate; read-out: toxicity data, H2122
Method in brief: (§4)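 Viability read as total ATP (Cell Titer Glo) following 4 days' compound exposure, with IC50 derived from dose-response curves. Duplicate 12-point series, top concentration 50 micromolar with 3-fold steps, on cells seeded at 15% confluence in RPMI-1640, 5% FBS, 2 mM L-glutamine.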

HBEC30KT = assay: Cell viability (ATP, Cell Titer Glo, 4 days), HBEC30KT; format: cell-based, human; settings: Homo sapiens, 12-point dose-response starting at 50 micromolar, 3-fold increments, in duplicate; read-out: toxicity data, HBEC30KT
H460 = assay: Cell viability dose-response, H460; format: cell-based; settings: Homo sapiens, NCI-H460; 12-point dose-response starting at 50 micromolar, 3-fold increments, in duplicate; read-out: toxicity data, H460
Method in brief: as §1

H1819 = assay: Cell viability dose-response, H1819; format: cell-based, human; settings: Homo sapiens, NCI-H1819, 12-point dose-response starting at 50 micromolar, 3-fold increments, in duplicate; read-out: toxicity data, H1819
Method in brief: as §4

H2073 = assay: Cell viability dose-response, H2073; format: cell-based, human; settings: Homo sapiens, NCI-H2073, 12-point dose-response starting at 50 micromolar, 3-fold increments, in duplicate; read-out: toxicity data, H2073
Method in brief: as §1

H1993 = assay: Cell viability dose-response, H1993; format: cell-based; settings: Homo sapiens, NCI-H1993; 12-point dose-response starting at 50 micromolar, 3-fold increments, in duplicate; read-out: toxicity data, H1993
Method in brief: as §1

H2122 cells = assay: Metabolism by sensitive cells (HPLC/MS/MS); format: in vitro ADME, human
Method: as §2, §3

H2009 = assay: Cell viability dose-response, H2009; format: cell-based, human; settings: Homo sapiens, NCI-H2009; 12-point dose-response starting at 50 micromolar, 3-fold increments, in duplicate; read-out: toxicity data, H2009
Method in brief: as §1

HCC95 = assay: Cell viability dose-response, HCC95; format: cell-based; settings: Homo sapiens, 12-point dose-response starting at 50 micromolar, 3-fold increments, in duplicate, read-out: toxicity data, HCC95
Method in brief: as §1

For `COc1ccc(CCNC(=O)C(=O)Nc2cccc(Cl)c2)cc1` [SW027950], the IC50 (HCC44) was 34 µM, the IC50 (H1155) was 50 µM and the IC50 (H1395) was 50 µM. The IC50 (HCC366) was 50 µM, the “stability in the presence of an insensitive cell line” value (HCC4017 [1]) was “completely stable” and the IC50 (HCC4017 [2]) was at least 50 µM. The IC50 (H2122) was 0.35 µM, the IC50 (HBEC30KT) was 34 µM and the IC50 (H460) was 3.9 µM. The IC50 (H1819) was at least 50 µM, the IC50 (H2073) was 1.4 µM and the IC50 (H1993) was 50 µM. The “metabolism by sensitive H2122 cells” value (H2122 cells) was “metabolized”, the IC50 (H2009) was 20.3 µM and the IC50 (HCC95) was 0.35 µM.
